From the supplement of paper PMC10307832

Experiments:
Assay in all cases: relative viability (nuclei count vs DMSO), 5 days (fraction); higher = more cells survive
EPLC-272H = test system: EPLC-272H
Procedure, shortened: (§1)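 One day after seeding in 1536-well plates, lung cancer cell lines were dosed by pin tool. Dosing was either single-drug or a fixed anchor-drug dose plus five library-drug doses (not always all listed) in √10 steps. After 5 days, nuclei were stained in one fix-and-stain step and counted on 4× images, and relative viability is the nuclei count of treated wells over that of vehicle wells, given as the median of duplicate plates.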

H3255 = test system: H3255
Procedure, shortened: as §1

HARA = test system: HARA
Procedure, shortened: as §1

LC-2-ad = test system: LC-2-ad
Procedure, shortened: as §1

LOU-NH91 = test system: LOU-NH91
Procedure, shortened: as §1

NCI-H1650 = test system: NCI-H1650
Procedure, shortened: as §1

NCI-H1651 = test system: NCI-H1651
Procedure, shortened: as §1

NCI-H1975 = test system: NCI-H1975
Procedure, shortened: as §1

NCI-H2009 = test system: NCI-H2009
Procedure, shortened: as §1

NCI-H2023 = test system: NCI-H2023
Procedure, shortened: as §1

NCI-H2085 = test system: NCI-H2085
Procedure, shortened: as §1

NCI-H2087 = test system: NCI-H2087
Procedure, shortened: as §1

NCI-H2170 = test system: NCI-H2170
Procedure, shortened: as §1

NCI-H2228 = test system: NCI-H2228
Procedure, shortened: as §1

NCI-H23 = test system: NCI-H23
Procedure, shortened: as §1

NCI-H441 = test system: NCI-H441
Procedure, shortened: as §1

NCI-H650 = test system: NCI-H650
Procedure, shortened: as §1

NCI-H727 = test system: NCI-H727
Procedure, shortened: as §1

NCI-H838 = test system: NCI-H838
Procedure, shortened: as §1

PC-3 [JPC-3] = test system: PC-3 [JPC-3]
Procedure, shortened: as §1

SW 1573 = test system: SW 1573
Procedure, shortened: as §1

UMC-11 = test system: UMC-11
Procedure, shortened: as §1

For `Cc1csc(=NC2CCCCC2)n1/N=C/c1ccc(O)c(O)c1O` [MIM1] + C[C@@H](Oc1cc(-c2cnn(C3CCNCC3)c2)cnc1N)c1c(Cl)ccc(F)c1Cl [Crizotinib] (partner 1 µM), the relative viability (EPLC-272H; first compound 0.2 µM) was 0.911, the relative viability (EPLC-272H; first compound 0.6325 µM) was 0.925 and the relative viability (EPLC-272H; first compound 2 µM) was 0.901. It also gave a relative viability (EPLC-272H; first compound 6.325 µM) of 0.666, a relative viability (EPLC-272H; first compound 20 µM) of 0.278 and a relative viability (H3255; first compound 0.2 µM) of 0.911. The relative viability (H3255; first compound 0.6325 µM) was 0.847, the relative viability (H3255; first compound 2 µM) was 0.774 and the relative viability (H3255; first compound 6.325 µM) was 0.629. It also gave a relative viability (H3255; first compound 20 µM) of 0.435, a relative viability (HARA; first compound 0.2 µM) of 1.06 and a relative viability (HARA; first compound 0.6325 µM) of 1.13. For the same compound, the relative viability (HARA; first compound 2 µM) was 1.08, the relative viability (HARA; first compound 6.325 µM) was 0.997 and the relative viability (HARA; first compound 20 µM) was 0.138. For the same compound, the relative viability (LC-2-ad; first compound 0.2 µM) was 0.499, the relative viability (LC-2-ad; first compound 0.6325 µM) was 0.385 and the relative viability (LC-2-ad; first compound 2 µM) was 0.34. It also gave a relative viability (LC-2-ad; first compound 6.325 µM) of 0.277, a relative viability (LC-2-ad; first compound 20 µM) of 0.21 and a relative viability (LOU-NH91; first compound 0.2 µM) of 0.748. For the same compound, the relative viability (LOU-NH91; first compound 0.6325 µM) was 0.728, the relative viability (LOU-NH91; first compound 2 µM) was 0.683 and the relative viability (LOU-NH91; first compound 6.325 µM) was 0.675. For the same compound, the relative viability (LOU-NH91; first compound 20 µM) was 0.392, the relative viability (NCI-H1650; first compound 0.2 µM) was 1.04 and the relative viability (NCI-H1650; first compound 0.6325 µM) was 0.931. The relative viability (NCI-H1650; first compound 2 µM) was 0.495, the relative viability (NCI-H1650; first compound 6.325 µM) was 0.47 and the relative viability (NCI-H1650; first compound 20 µM) was 0.156. For the same compound, the relative viability (NCI-H1651; first compound 0.2 µM) was 0.921, the relative viability (NCI-H1651; first compound 0.6325 µM) was 0.878 and the relative viability (NCI-H1651; first compound 2 µM) was 0.827. For the same compound, the relative viability (NCI-H1651; first compound 6.325 µM) was 0.832, the relative viability (NCI-H1651; first compound 20 µM) was 0.584 and the relative viability (NCI-H1975; first compound 0.2 µM) was 0.908. It also gave a relative viability (NCI-H1975; first compound 0.6325 µM) of 1.1, a relative viability (NCI-H1975; first compound 2 µM) of 0.871 and a relative viability (NCI-H1975; first compound 6.325 µM) of 0.545. It also gave a relative viability (NCI-H1975; first compound 20 µM) of 0.482, a relative viability (NCI-H2009; first compound 0.2 µM) of 0.964 and a relative viability (NCI-H2009; first compound 0.6325 µM) of 1.1. For the same compound, the relative viability (NCI-H2009; first compound 2 µM) was 1.1, the relative viability (NCI-H2009; first compound 6.325 µM) was 1.02 and the relative viability (NCI-H2009; first compound 20 µM) was 0.732. It also gave a relative viability (NCI-H2023; first compound 0.2 µM) of 0.551, a relative viability (NCI-H2023; first compound 0.6325 µM) of 0.598 and a relative viability (NCI-H2023; first compound 2 µM) of 0.573. The relative viability (NCI-H2023; first compound 6.325 µM) was 0.406, the relative viability (NCI-H2023; first compound 20 µM) was 0.111 and the relative viability (NCI-H2085; first compound 0.2 µM) was 0.851. It also gave a relative viability (NCI-H2085; first compound 0.6325 µM) of 0.85, a relative viability (NCI-H2085; first compound 2 µM) of 0.761 and a relative viability (NCI-H2085; first compound 6.325 µM) of 0.825. The relative viability (NCI-H2085; first compound 20 µM) was 0.847, the relative viability (NCI-H2087; first compound 0.2 µM) was 0.772 and the relative viability (NCI-H2087; first compound 0.6325 µM) was 0.934. For the same compound, the relative viability (NCI-H2087; first compound 2 µM) was 0.838, the relative viability (NCI-H2087; first compound 6.325 µM) was 0.739 and the relative viability (NCI-H2087; first compound 20 µM) was 0.766. For the same compound, the relative viability (NCI-H2170; first compound 0.2 µM) was 1.15, the relative viability (NCI-H2170; first compound 0.6325 µM) was 1.07 and the relative viability (NCI-H2170; first compound 2 µM) was 1.13. The relative viability (NCI-H2170; first compound 6.325 µM) was 0.652, the relative viability (NCI-H2170; first compound 20 µM) was 0.302 and the relative viability (NCI-H2228; first compound 0.2 µM) was 0.453. The relative viability (NCI-H2228; first compound 0.6325 µM) was 0.488, the relative viability (NCI-H2228; first compound 2 µM) was 0.61 and the relative viability (NCI-H2228; first compound 6.325 µM) was 0.241. For the same compound, the relative viability (NCI-H2228; first compound 20 µM) was 0.22, the relative viability (NCI-H23; first compound 0.2 µM) was 0.554 and the relative viability (NCI-H23; first compound 2 µM) was 0.334. For the same compound, the relative viability (NCI-H23; first compound 6.325 µM) was 0.487, the relative viability (NCI-H23; first compound 20 µM) was 0.259 and the relative viability (NCI-H441; first compound 0.2 µM) was 0.835. It also gave a relative viability (NCI-H441; first compound 0.6325 µM) of 0.692, a relative viability (NCI-H441; first compound 2 µM) of 0.774 and a relative viability (NCI-H441; first compound 6.325 µM) of 0.433. It also gave a relative viability (NCI-H441; first compound 20 µM) of 0.222, a relative viability (NCI-H650; first compound 0.2 µM) of 0.649 and a relative viability (NCI-H650; first compound 0.6325 µM) of 0.709. The relative viability (NCI-H650; first compound 2 µM) was 0.662, the relative viability (NCI-H650; first compound 6.325 µM) was 0.619 and the relative viability (NCI-H650; first compound 20 µM) was 0.279. It also gave a relative viability (NCI-H727; first compound 0.2 µM) of 0.836, a relative viability (NCI-H727; first compound 0.6325 µM) of 0.81 and a relative viability (NCI-H727; first compound 2 µM) of 0.795. For the same compound, the relative viability (NCI-H727; first compound 6.325 µM) was 0.534, the relative viability (NCI-H727; first compound 20 µM) was 0.349 and the relative viability (NCI-H838; first compound 0.2 µM) was 0.818. It also gave a relative viability (NCI-H838; first compound 0.6325 µM) of 0.988, a relative viability (NCI-H838; first compound 2 µM) of 0.554 and a relative viability (NCI-H838; first compound 6.325 µM) of 0.688. The relative viability (NCI-H838; first compound 20 µM) was 0.699, the relative viability (PC-3 [JPC-3]; first compound 0.2 µM) was 0.989 and the relative viability (PC-3 [JPC-3]; first compound 0.6325 µM) was 1. For the same compound, the relative viability (PC-3 [JPC-3]; first compound 2 µM) was 1, the relative viability (PC-3 [JPC-3]; first compound 6.325 µM) was 0.768 and the relative viability (PC-3 [JPC-3]; first compound 20 µM) was 0.451. The relative viability (SW 1573; first compound 0.2 µM) was 0.8, the relative viability (SW 1573; first compound 0.6325 µM) was 0.847 and the relative viability (SW 1573; first compound 2 µM) was 0.875. It also gave a relative viability (SW 1573; first compound 6.325 µM) of 0.661, a relative viability (SW 1573; first compound 20 µM) of 0.451 and a relative viability (UMC-11; first compound 0.2 µM) of 0.544. It also gave a relative viability (UMC-11; first compound 0.6325 µM) of 0.565, a relative viability (UMC-11; first compound 2 µM) of 0.649 and a relative viability (UMC-11; first compound 6.325 µM) of 0.349. It also gave a relative viability (UMC-11; first compound 20 µM) of 0.184.
